Assays:
FGFR2 = FGFR2 (Homo sapiens (Human), UniProt P21802); assay: Biochemical FGFR2 Caliper assay
SNU-16 = assay: Cell SNU-16 assay; assay type: cell-based
[1] = Homo sapiens, SNU-16, SNU-16 cells

FGFR2, sequence (P21802 22-821): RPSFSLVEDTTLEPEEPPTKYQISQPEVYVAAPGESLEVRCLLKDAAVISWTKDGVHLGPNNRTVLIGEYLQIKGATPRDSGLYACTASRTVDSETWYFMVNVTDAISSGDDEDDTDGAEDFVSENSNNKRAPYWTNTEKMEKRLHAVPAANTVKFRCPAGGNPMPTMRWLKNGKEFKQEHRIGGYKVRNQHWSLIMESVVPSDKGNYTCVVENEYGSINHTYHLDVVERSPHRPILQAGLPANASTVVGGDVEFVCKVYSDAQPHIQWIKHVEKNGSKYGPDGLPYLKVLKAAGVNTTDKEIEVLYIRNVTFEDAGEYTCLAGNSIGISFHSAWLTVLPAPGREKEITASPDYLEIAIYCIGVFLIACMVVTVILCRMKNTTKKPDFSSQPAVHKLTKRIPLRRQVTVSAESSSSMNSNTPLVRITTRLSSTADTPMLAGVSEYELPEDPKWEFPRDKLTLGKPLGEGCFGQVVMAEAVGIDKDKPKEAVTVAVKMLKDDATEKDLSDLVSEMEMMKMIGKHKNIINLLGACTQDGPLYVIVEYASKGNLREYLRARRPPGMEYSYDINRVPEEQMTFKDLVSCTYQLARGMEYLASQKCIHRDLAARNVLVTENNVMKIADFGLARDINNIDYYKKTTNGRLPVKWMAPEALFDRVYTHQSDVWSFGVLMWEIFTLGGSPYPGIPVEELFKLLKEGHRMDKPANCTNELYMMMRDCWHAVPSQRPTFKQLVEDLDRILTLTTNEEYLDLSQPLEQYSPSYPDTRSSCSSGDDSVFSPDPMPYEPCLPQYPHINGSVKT

SMILES	IC50 (FGFR2) [nM]	IC50 (SNU-16; [1]) [nM]	IC50 (SNU-16; SNU-16 cells) [nM]
C#C[C@@H]1CCCN1C(=O)[C@@H]1CC=C(c2c(-c3ccc(NC(=O)C(=C)C)cc3)n(C)c3ncnc(N)c23)CC1 (single isomer, unassigned) [Example 951]	250 to 1000	100 to 250	
C=C(C)C(=O)Nc1ccc(-c2c(C3=CC[C@H](C(=O)N4CCC[C@@]45CCOC5)CC3)c3c(N)ncnc3n2C)cc1 (single isomer, unassigned) [Example 955]	1000 to 100000		250 to 1000
C=C(C)C(=O)Nc1ccc(-c2c(C3=CC[C@H](C(=O)NC4CCCC4)CC3)c3c(N)ncnc3n2C)cc1 (single isomer, unassigned) [Example 957]	100 to 250	≤ 100	
C=C(C)C(=O)Nc1ccc(-c2c(C3=CC[C@@H](C(=O)NC4CCCC4)CC3)c3c(N)ncnc3n2C)cc1 (single isomer, unassigned) [Example 958]	250 to 1000	≤ 100	
C=C(C)C(=O)Nc1ccc(-c2c(C3=CC[C@H](C(=O)N4CCC[C@@]45CCOC5)CC3)c3c(N)ncnc3n2C)cc1 (single isomer, unassigned) [Example 960]	1000 to 100000		1000 to 100000
C=C(C)C(=O)Nc1ccc(-c2c(C3=CC[C@@H](C(=O)N4CCC[C@]45CCOC5)CC3)c3c(N)ncnc3n2C)cc1 (single isomer, unassigned) [Example 961]	1000 to 100000		250 to 1000
C=CC(=O)N[C@H]1C[C@@H]1c1c(-c2ccc(C(=O)N3CCCC3)cc2)c2c(N)ncnc2n1C (single isomer, unassigned) [Example 972]	1000 to 100000	1000 to 100000	
C=CC(=O)N[C@@H]1C[C@@H]1c1c(-c2ccc(C(=O)N3CCCC3)cc2)c2c(N)ncnc2n1C (single isomer, unassigned) [Example 973]	250 to 1000	1000 to 100000	
C=CC(=O)N[C@@H]1C[C@H]1c1c(-c2ccc(C(=O)N3CCCC3)cc2)c2c(N)ncnc2n1C (single isomer, unassigned) [Example 974]	1000 to 100000	1000 to 100000	
C=CC(=O)N[C@H]1C[C@H]1c1c(-c2ccc(C(=O)N3CCCC3)cc2)c2c(N)ncnc2n1C (single isomer, unassigned) [Example 975]	1000 to 100000	1000 to 100000	
C=C(C)C(=O)Nc1ccc(-c2c(C3=CC[C@@H](C(=O)N4CCCCCC4)CC3)c3c(N)ncnc3n2C)cc1 (single isomer, unassigned) [Example 979]	250 to 1000	250 to 1000	
C=C(C)C(=O)Nc1ccc(-c2c(C3=CC[C@@H](C(=O)N4CCC[C@H]4COC)CC3)c3c(N)ncnc3n2C)cc1 (single isomer, unassigned) [Example 981]	250 to 1000	250 to 1000	
C=C(C)C(=O)Nc1ccc(-c2c(C3=CC[C@H](C(=O)N4CCC[C@H]4COC)CC3)c3c(N)ncnc3n2C)cc1 (single isomer, unassigned) [Example 982]	1000 to 100000	250 to 1000	
C=C(C)C(=O)Nc1ccc(-c2c(C3=CC[C@@H](C(=O)N4CCc5ccccc54)CC3)c3c(N)ncnc3n2C)cc1 (single isomer, unassigned) [Example 985]	250 to 1000	250 to 1000	
C=C(C)C(=O)Nc1ccc(-c2c(C3=CC[C@H](C(=O)N4CCc5ccccc54)CC3)c3c(N)ncnc3n2C)cc1 (single isomer, unassigned) [Example 986]	250 to 1000	250 to 1000	
C=C(C)C(=O)Nc1ccc(-c2c(C3=CC[C@@]4(CC3)Cc3ccccc3C4=O)c3c(N)ncnc3n2C)cc1 (single isomer, unassigned) [Example 987]	1000 to 100000	1000 to 100000	
C=C(C)C(=O)Nc1ccc(-c2c(C3=CC[C@]4(CC3)Cc3ccccc3C4=O)c3c(N)ncnc3n2C)cc1 (single isomer, unassigned) [Example 988]	250 to 1000	≤ 100	
C=C(C)C(=O)Nc1ccc(-c2c(C3=CC[C@H](C(=O)N4CCCC45COC5)CC3)c3c(N)ncnc3n2C)c(C)c1 (single isomer, unassigned) [Example 1029]	1000 to 100000	250 to 1000	
C=CC(=O)N[C@@H]1CCN(c2cccc(-c3c(-c4ccc(Oc5cccc(C)n5)cc4)c4c(N)ncnc4n3C)c2)C1 (single isomer, unassigned) [Example 1032]	250 to 1000	≤ 100	
C=C(C)C(=O)Nc1ccc(-c2c(C3=CC[C@H](C(=O)N4CCCC4)CC3)c3c(N)ncnc3n2C)c(C)c1 (single isomer, unassigned) [Example 1034]	100 to 250	≤ 100	
CN(C)C/C=C/C(=O)Nc1ccc(-c2c(C3=CC[C@@H](C(=O)N4CCCC4)CC3)c3c(N)ncnc3n2C)cc1 (single isomer, unassigned) [Example 1036]	250 to 1000	≤ 100	
C=C(C)C(=O)Nc1ccc(-c2c(C3=CC[C@@H](C(=O)N4CC[C@H]5C[C@H]54)CC3)c3c(N)ncnc3n2C)cc1 (single isomer, unassigned) [Example 1039]	1000 to 100000	1000 to 100000	
C=C1CCN(c2ccc(-c3c(C4=CC[C@@H](C(=O)N5CCCC5)CC4)c4c(N)ncnc4n3C)cc2)C1=O (single isomer, unassigned) [Example 1134]	250 to 1000	100 to 250	
C=C1CCN(c2ccc(-c3c(C4=CC[C@H](C(=O)N5CCCC5)CC4)c4c(N)ncnc4n3C)cc2)C1=O (single isomer, unassigned) [Example 1137]	250 to 1000	100 to 250	
C#Cc1ncc(-c2c(C3=CC[C@H](C(=O)N4CCCC4)CC3)c3c(C)ncnc3n2C)c(C)n1 (single isomer, unassigned) [Example 1169]	< 100	≤ 100	
C#Cc1cc(C)c(-c2c(C3=CC[C@@H](C(=O)N4CCCC4)CC3)c3c(C)ncnc3n2C)cn1 (single isomer, unassigned) [Example 1199]	< 100	≤ 100	
C#Cc1cc(C)c(-c2c(C3=CC[C@H](C(=O)N4CCCC4)CC3)c3c(C)ncnc3n2C)cn1 (single isomer, unassigned) [Example 1201]	< 100	≤ 100	
C#Cc1ccc(-c2c(C3=CC[C@H](C(=O)N4CCC[C@H]4COC)CC3)c3c(N)ncnc3n2C)c(C)n1 (single isomer, unassigned) [Example 1204]	< 100	≤ 100	

The next lines start with the values.

IC50 (FGFR2) [nM]	IC50 (SNU-16; [1]) [nM]	IC50 (SNU-16; SNU-16 cells) [nM]	SMILES
< 100	1000 to 100000		C#C[C@H]1CCCN1C(=O)[C@@H]1CC=C(c2c(-c3ccc(NC(=O)C(=C)C)cc3)n(C)c3ncnc(N)c23)CC1 (single isomer, unassigned) [Example 953]
< 100		≤ 100	C=C(C)C(=O)Nc1ccc(-c2c(C3=CC[C@@H](C(=O)N4CCC[C@]45CCOC5)CC3)c3c(N)ncnc3n2C)cc1 (single isomer, unassigned) [Example 954]
< 100	≤ 100		C=CC(=O)Nc1ccc(-c2c(C3=CC[C@@H](C(=O)N4CCCC4)CC3)c3c(N)ncnc3n2C)cc1 (single isomer, unassigned) [Example 962]
< 100	≤ 100		C=CC(=O)Nc1ccc(-c2c(C3=CC[C@H](C(=O)N4CCCC4)CC3)c3c(N)ncnc3n2C)cc1 (single isomer, unassigned) [Example 963]
< 100	≤ 100		C=C(C)C(=O)Nc1ccc(-c2c(C3=CC[C@H](C(=O)N4CCCCCC4)CC3)c3c(N)ncnc3n2C)cc1 (single isomer, unassigned) [Example 977]
< 100	100 to 250		C=CC(=O)N[C@H]1CCN(c2cccc(-c3c(-c4ccc(Oc5cccc(C)n5)cc4)c4c(N)ncnc4n3C)c2)C1 (single isomer, unassigned) [Example 1031]
< 100	≤ 100		C=C(C)C(=O)Nc1ccc(-c2c(C3=CC[C@@H](C(=O)N4CCCC45COC5)CC3)c3c(N)ncnc3n2C)c(C)c1 (single isomer, unassigned) [Example 1033]
< 100	≤ 100		C=C(C)C(=O)Nc1ccc(-c2c(C3=CC[C@@H](C(=O)N4CCCC4)CC3)c3c(N)ncnc3n2C)c(C)c1 (single isomer, unassigned) [Example 1035]
< 100	≤ 100		C=C(C)C(=O)Nc1ccc(-c2c(C3=CC[C@H](C(=O)N4CC[C@@H]5C[C@@H]54)CC3)c3c(N)ncnc3n2C)cc1 (single isomer, unassigned) [Example 1038]
< 100	≤ 100		CN(C)C/C=C/C(=O)Nc1ccc(-c2c(C3=CC[C@H](C(=O)N4CCCC4)CC3)c3c(N)ncnc3n2C)cc1 (single isomer, unassigned) [Example 1042]
< 100	≤ 100		C=C(C)C(=O)Nc1ccc(-c2c(C3=CC[C@H](C(=O)N4CC[C@H]5C[C@H]54)CC3)c3c(N)ncnc3n2C)cc1 (single isomer, unassigned) [Example 1043]
< 100	≤ 100		C=CC(=O)Nc1ccc(-c2c(C3=CC[C@@H](C(=O)N4CCCC4)CC3)c3c(N)ncnc3n2C)c(C)c1 (single isomer, unassigned) [Example 1102]
< 100	≤ 100		C=CC(=O)Nc1ccc(-c2c(C3=CC[C@@H](C(=O)N4CCCC4)CC3)c3c(C)ncnc3n2C)c(C)c1 (single isomer, unassigned) [Example 1106]
< 100	≤ 100		C=CC(=O)Nc1ccc(-c2c(C3=CC[C@H](C(=O)N4CCCC4)CC3)c3c(C)ncnc3n2C)cc1 (single isomer, unassigned) [Example 1107]
< 100	≤ 100		C=C1CCN(c2ccc(-c3c(C4=CC[C@@H](C(=O)N5CCCC5)CC4)c4c(C)ncnc4n3C)c(Cl)c2)C1=O (single isomer, unassigned) [Example 1140]
< 100	≤ 100		C=C1CCN(c2ccc(-c3c(C4=CC[C@H](C(=O)N5CCCC5)CC4)c4c(C)ncnc4n3C)c(Cl)c2)C1=O (single isomer, unassigned) [Example 1141]
< 100	≤ 100		C#Cc1cc(C)c(-c2c(C3=CC[C@@H](C(=O)N4CCCC4)CC3)c3c(N)ncnc3n2C)cn1 (single isomer, unassigned) [Example 1142]
< 100	≤ 100		C#Cc1ncc(-c2c(C3=CC[C@@H](C(=O)N4CCCC4)CC3)c3c(C)ncnc3n2C)c(C)n1 (single isomer, unassigned) [Example 1166]
